Assays:
Assay type in all cases: cell-based
PTK2 = target: T1, PTK2 (Homo sapiens, UniProt Q05397); test: Expression proteomics in THP-1 cells: PTK2 protein level; settings: PTK2, THP-1 cells
T1 construct: endogenous in cells; host or cells: THP-1
Description: (§1) THP-1 cells were seeded at a concentration of 3×10^6 cells in T175 flasks with 60 mL growth medium (RPMI1640+10% FBS). […] of a 10× compound solution prepared in growth medium (DMSO), CEREBLON_PROTAC) was added and the cells were treated for the indicated time points (6 or 24 h) at 37° C., 5% CO2. For harvesting the cells were collected into falcon tubes on ice, centrifuged and washed twice in cold PBS (Life technologies). After the last washing step the supernatant was removed and the pellets were snap-frozen in liquid N2 and stored at −80° C. and lysed in 2% SDS for 3 min at 95° C. in a thermomixer (Thermo Fisher Scientific), followed by digestion of DNA with Benzonase at 37° C. for 1.5 h. Lysate was cleared by centrifugation an protein concentration in supernatant was determined by BCA assay.
(§2) Leukemia 25, 89-100 (2011).
(§3) Samples were dried in vacuo and resuspended in 0.05% trifluoroacetic acid in water. Of the sample, 50% was injected into an Ultimate3000 nanoRLSC (Dionex, Sunnyvale, Calif.) coupled to a Q Exactive HF (Thermo Fisher Scientific). Peptides were trapped on a 5 mm×300 μm C18 column (Pepmap100, 5 μm, 300 Å, Thermo Fisher Scientific) in water with 0.05% TFA at 60° C. Separation was performed on custom 50 cm×[…] (ID) reversed-phase columns (Reprosil) at 55° C. Gradient elution was performed from 2% acetonitrile to 40% acetonitrile in 0.1% formic acid and 3.5% DMSO over 2 hours. Samples were online injected into Q-Exactive HF mass spectrometers operating with a data-dependent top 10 method. MS spectra were acquired by using 60.000 resolution and an ion target of 3×10^6. Higher energy collisional dissociation (HCD) scans were performed with 35% NCE at 30.000 resolution (at m/z 200), and the ion target settings was set to 2×10^5 so as to avoid coalescence (Werner, T. et al. Ion Coalescence of Neutron Encoded TMT 10-Plex Reporter Ions. Anal. Chem. 86, 3594-3601 (2014).
(§4) The first search was performed with 30 parts per million mass tolerance for peptide precursors and 30 mD (HCD) mass tolerance for fragment ions followed by a final search using recalibrated data with a 10 parts per million mass tolerance for peptide precursors and 20 mD (HCD) mass tolerance for fragment ions. Carbamidomethylation of cysteine residues and TMT modification of lysine residues were set as fixed modifications and methionine oxidation, and N-terminal acetylation of proteins and TMT modification of peptide N-termini were set as variable modifications. […]
(§5) Nat Biotech 29, 255-265 (2011). this measure is referred to as ion area Savitski, M. M. et al. Delayed Fragmentation and Optimized Isolation Width Settings for Improvement of Protein Identification and Accuracy of Isobaric Mass Tag Quantification on Orbitrap-Type Mass Spectrometers. […]

AURKB = target: T2, AURKB (Homo sapiens, UniProt Q96GD4); test: Expression proteomics in THP-1 cells: AURKB protein level
T2 construct: endogenous in cells; host or cells: THP-1
T2 sequence (Q96GD4 whole entry): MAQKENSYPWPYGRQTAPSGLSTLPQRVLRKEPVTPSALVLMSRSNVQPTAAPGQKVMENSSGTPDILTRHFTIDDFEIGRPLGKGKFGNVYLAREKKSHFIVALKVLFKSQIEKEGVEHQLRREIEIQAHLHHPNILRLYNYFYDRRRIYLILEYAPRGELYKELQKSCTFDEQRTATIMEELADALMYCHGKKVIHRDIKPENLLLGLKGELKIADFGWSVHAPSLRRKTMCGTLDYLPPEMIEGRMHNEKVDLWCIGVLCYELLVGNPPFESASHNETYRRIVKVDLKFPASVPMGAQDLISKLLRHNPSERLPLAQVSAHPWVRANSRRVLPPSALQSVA
Description: as §1, §2, §3, §4, §5

ABL1 = target: T3, ABL1 (Homo sapiens, UniProt P00519); test: Expression proteomics in THP-1 cells: ABL1 protein level; settings: ABL1, THP-1 cells
T3 construct: endogenous in cells; host or cells: THP-1
T3 sequence (P00519 whole entry): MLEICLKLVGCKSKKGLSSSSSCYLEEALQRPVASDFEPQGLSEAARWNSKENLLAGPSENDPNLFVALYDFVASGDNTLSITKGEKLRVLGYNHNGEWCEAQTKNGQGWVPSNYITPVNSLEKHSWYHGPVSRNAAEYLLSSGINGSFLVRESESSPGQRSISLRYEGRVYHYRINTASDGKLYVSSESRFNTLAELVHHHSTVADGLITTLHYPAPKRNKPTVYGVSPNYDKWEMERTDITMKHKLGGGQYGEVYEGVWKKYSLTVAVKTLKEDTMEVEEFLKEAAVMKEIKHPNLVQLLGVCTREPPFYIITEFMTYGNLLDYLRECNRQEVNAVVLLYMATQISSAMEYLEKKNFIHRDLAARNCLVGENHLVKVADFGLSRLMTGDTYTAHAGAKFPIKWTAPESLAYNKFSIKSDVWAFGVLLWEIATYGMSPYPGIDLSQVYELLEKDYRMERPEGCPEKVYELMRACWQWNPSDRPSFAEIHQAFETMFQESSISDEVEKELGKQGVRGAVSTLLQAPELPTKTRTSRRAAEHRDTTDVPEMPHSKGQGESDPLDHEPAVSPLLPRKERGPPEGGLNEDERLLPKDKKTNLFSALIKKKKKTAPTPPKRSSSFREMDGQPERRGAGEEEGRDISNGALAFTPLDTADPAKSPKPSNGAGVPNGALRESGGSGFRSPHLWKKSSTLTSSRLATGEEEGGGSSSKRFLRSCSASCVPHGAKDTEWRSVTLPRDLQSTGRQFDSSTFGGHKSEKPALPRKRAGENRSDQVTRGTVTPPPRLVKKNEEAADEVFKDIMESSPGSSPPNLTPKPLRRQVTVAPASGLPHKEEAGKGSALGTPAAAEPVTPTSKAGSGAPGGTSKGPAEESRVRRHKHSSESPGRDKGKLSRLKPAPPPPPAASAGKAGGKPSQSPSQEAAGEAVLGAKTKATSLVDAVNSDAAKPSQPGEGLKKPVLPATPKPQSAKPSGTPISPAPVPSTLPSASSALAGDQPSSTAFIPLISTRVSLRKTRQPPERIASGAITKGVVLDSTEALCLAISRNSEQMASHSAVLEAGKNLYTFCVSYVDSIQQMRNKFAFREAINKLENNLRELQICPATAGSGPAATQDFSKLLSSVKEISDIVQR
Description: as §1, §2, §3, §4, §5

MAPK9 = target: T4, MAPK9 (Homo sapiens, UniProt P45984); test: Expression proteomics in THP-1 cells: MAPK9 protein level; settings: MAPK9, THP-1 cells
T4 construct: endogenous in cells; host or cells: THP-1
T4 sequence (P45984 whole entry): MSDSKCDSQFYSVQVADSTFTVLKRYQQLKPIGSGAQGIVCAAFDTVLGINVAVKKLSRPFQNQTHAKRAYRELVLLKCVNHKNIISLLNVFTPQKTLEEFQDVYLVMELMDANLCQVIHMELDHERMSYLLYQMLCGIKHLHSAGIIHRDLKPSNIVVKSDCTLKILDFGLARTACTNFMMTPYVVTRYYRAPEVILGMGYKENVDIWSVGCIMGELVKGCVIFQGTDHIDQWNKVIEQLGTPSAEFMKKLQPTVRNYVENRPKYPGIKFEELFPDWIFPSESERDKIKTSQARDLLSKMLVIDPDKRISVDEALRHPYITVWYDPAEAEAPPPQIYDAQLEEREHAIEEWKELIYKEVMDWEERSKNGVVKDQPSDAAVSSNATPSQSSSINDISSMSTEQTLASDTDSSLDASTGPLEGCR
Description: as §1, §2, §3, §4, §5

T1 sequence (Q05397 whole entry): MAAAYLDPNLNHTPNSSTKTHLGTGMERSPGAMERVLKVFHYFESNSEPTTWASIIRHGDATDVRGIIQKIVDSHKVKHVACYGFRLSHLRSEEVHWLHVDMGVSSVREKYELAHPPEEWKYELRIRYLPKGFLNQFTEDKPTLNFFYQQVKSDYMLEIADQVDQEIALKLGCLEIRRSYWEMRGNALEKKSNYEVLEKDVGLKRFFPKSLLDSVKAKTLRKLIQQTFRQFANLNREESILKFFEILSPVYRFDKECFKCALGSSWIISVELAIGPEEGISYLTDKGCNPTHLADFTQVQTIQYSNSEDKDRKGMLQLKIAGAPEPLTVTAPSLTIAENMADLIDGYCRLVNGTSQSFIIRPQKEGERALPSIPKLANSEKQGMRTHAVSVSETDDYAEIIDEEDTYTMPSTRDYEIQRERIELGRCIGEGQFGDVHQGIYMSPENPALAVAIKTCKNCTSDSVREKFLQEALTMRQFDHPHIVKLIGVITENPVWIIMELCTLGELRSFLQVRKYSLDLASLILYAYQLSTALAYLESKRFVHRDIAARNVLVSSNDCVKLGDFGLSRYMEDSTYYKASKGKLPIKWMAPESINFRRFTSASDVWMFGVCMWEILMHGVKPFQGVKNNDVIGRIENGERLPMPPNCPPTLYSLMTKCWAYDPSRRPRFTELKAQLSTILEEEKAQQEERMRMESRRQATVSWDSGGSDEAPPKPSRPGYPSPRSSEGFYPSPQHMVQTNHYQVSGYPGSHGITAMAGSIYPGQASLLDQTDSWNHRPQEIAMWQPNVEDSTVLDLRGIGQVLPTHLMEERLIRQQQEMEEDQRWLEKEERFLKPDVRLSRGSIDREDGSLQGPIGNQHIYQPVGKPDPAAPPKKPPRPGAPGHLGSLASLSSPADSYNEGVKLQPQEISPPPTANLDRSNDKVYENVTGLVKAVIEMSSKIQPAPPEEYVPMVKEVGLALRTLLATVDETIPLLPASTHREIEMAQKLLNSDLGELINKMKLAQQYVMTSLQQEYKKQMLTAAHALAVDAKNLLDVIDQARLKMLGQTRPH

log2 rel. fc. to vehicle control (PTK2; 24 h 0.1 μM, n = 1): −2.29 | log2 rel. fc. to vehicle control (PTK2; 24 h 0.1 μM, n = 2): −2.92 | log2 rel. fc. to vehicle control (PTK2; 24 h 1 μM, n = 1): −2.42 | log2 rel. fc. to vehicle control (PTK2; 24 h 1 μM, n = 2): −2.20 | log2 rel. fc. to vehicle control (AURKB; 24 h 0.1 μM, n = 1): −1.75 | log2 rel. fc. to vehicle control (AURKB; 24 h 0.1 μM, n = 2): −1.44 | log2 rel. fc. to vehicle control (AURKB; 24 h 1 μM, n = 1): −0.83 | log2 rel. fc. to vehicle control (AURKB; 24 h 1 μM, n = 2): −1.33 | log2 rel. fc. to vehicle control (ABL1; 24 h 0.1 μM, n = 1): −0.72 | log2 rel. fc. to vehicle control (ABL1; 24 h 0.1 μM, n = 2): −0.70 | log2 rel. fc. to vehicle control (ABL1; 24 h 1 μM, n = 1): −1.43 | log2 rel. fc. to vehicle control (ABL1; 24 h 1 μM, n = 2): −1.63 | log2 rel. fc. to vehicle control (MAPK9; 24 h 0.1 μM, n = 1): −0.69 | log2 rel. fc. to vehicle control (MAPK9; 24 h 0.1 μM, n = 2): −0.98 | log2 rel. fc. to vehicle control (MAPK9; 24 h 1 μM, n = 1): −1.83 | log2 rel. fc. to vehicle control (MAPK9; 24 h 1 μM, n = 2): −1.75
SMILES: CNC(=O)c1ccccc1Nc1nc(Nc2ccc(N3CCN(CCOCCOCCOCCOCC(=O)Nc4cccc5c4CN(C4CCC(=O)NC4=O)C5=O)CC3)cc2)ncc1Cl.O=CO (stereo not shown) [CEREBLON_PROTAC, 14-(4-(4-((5-Chloro-4-((2-(methylcarbamoyl)phenyl)amino)pyrimidin-2-yl)amino)phenyl)piperazin-1-yl)-N-(2-(2,6-dioxopiperidin-3-yl)-1-oxoisoindolin-4-yl)-3,6,9,12-tetraoxatetradecan-1-amide formate]
